The text below walks through data of patent US10899754B2, “Modulators of indoleamine 2,3-dioxygenase” (GLAXOSMITHKLINE INTELLECTUAL PROPERTY DEVELOPMENT LIMITED, priority 2016, dated 2021).

Holding throughout (assay type): cell-based
The test system of series [1] is human epithelial HeLa cells. Description: HeLa cytotoxicity assay (CellTiter-Glo). The conditions noted are these: pCC50. The essentials:
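HeLa cells (5,000/well) stimulated with 10 nM IFN-γ, exposed to 11-point 3-fold compound dilutions for 2 days at 37 °C; viability by CellTiter-Glo ATP luminescence. Normalized to cell-free (100% cytotoxicity) and stimulated-cell DMSO (0%) controls; four-parameter fit gives pCC50.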

Series [2] has as its system human peripheral blood mononuclear cells (PBMC). Nature of the series: PBMC cytotoxicity assay (CellTiter-Glo). To be noted: 2 days, pCC50. In a few lines:
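Human PBMC (50,000 cells/well) stimulated with IFN-γ 100 ng/ml and LPS 50 ng/ml were exposed to 11-point 3-fold compound dilutions for 2 days at 37 °C, 5% CO2. Viability read by CellTiter-Glo ATP luminescence and normalized to no-cell and stimulated-DMSO controls. XC50 derived by four-parameter fit.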

The target in series [3] is T1, indoleamine 2, 3-dioxygenase (IDO1) (Homo sapiens, UniProt P14902). Nature of the series: IDO1 HeLa RapidFire MS assay (kynurenine detection by mass spectrometry). Also on record: to induce the expression of indoleamine 2, 3-dioxygenase (IDO1). To be noted: HeLa cells, pIC50, read-out: IDO1_HELA_PXC50 (converted). The essentials:
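Compound potency reported as pIC50 from kynurenine/internal-standard ratio (RapidFire MS) in supernatant of IFN-γ-induced (10 nM) HeLa cells, 5,000 per well, after 2 days' treatment with 11-point dilutions. Cytotoxicity in the same format by luminescent ATP detection, reported as pCC50.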

Series [4] concerns the target T1, indoleamine 2, 3-dioxygenase (IDO1). Nature of the series: IDO1 PBMC RapidFire MS assay (kynurenine detection by mass spectrometry). Also noted: to induce the expression of indoleamine 2, 3-dioxygenase (IDO1); host or cells: human PBMC stimulated with IFN-gamma and LPS. The conditions noted are these: human PBMC stimulated with IFN-γ and LPS, 2 days, pIC50, read-out: PBMC PXC50 (converted). In a few lines: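 PBMCs (50,000 cells/well) stimulated with IFN-γ 100 ng/ml plus LPS 50 ng/ml, treated with 11-point 3-fold compound series for 2 days at 37° C. Supernatant kynurenine measured by RapidFire MS, normalised to internal standard; parallel cytotoxicity by CellTiter-Glo luminescence; curves fitted for XC50.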

The structures appear in SMILES notation.

T1 sequence (P14902 whole entry): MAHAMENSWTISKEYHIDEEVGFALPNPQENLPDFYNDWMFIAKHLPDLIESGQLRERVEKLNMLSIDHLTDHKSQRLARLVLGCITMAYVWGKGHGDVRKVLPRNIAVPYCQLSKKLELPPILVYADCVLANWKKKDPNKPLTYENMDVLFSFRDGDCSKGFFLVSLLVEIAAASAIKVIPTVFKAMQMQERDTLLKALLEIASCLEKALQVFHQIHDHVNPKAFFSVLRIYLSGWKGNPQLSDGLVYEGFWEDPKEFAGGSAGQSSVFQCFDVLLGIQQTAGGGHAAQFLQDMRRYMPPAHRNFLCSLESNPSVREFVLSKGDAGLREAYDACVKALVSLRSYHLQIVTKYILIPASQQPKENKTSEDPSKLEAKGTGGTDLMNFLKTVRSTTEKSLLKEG

Turning to `CC(C)CN(c1ccc(C(C)CC(=O)O)cc1NC1=N[C@@H](c2ccccc2)CO1)C1CCCCC1` (stereo partly drawn) [example 153, 3-{4-[cyclohexyl(2-methylpropyl)amino]-3-{[(4S)-4-phenyl-4,5-dihydro-1,3-oxazol-2-yl]amino}phenyl}butanoic acid], the HELA_IDO1_TOX_PXC50 in series [1] is listed as below 5. The “PBMC TOX PXC50” value in series [2] was below 5. In addition, the IC50 in series [3] was 3980 nM; in series [4], 2000 nM.

`CC(C)CN(c1ccc(C(C)(C)CC(=O)O)cc1Nc1nc(Cl)ns1)C1CCCCC1` [Example 2, 3-(3-((3-chloro-1,2,4-thiadiazol-5-yl)amino)-4-(cyclohexyl(isobutyl)amino)phenyl)-3-methylbutanoic Acid] yielded an HELA_IDO1_TOX_PXC50 in series [1] below 5. Besides, the “PBMC TOX PXC50” value in series [2] is reported as below 5. Moreover, the IC50 in series [3] was 7.94 nM; in series [4], 1.58 nM.

In turn, `CC(C)CN(c1ccc(-c2ccccc2C(=O)O)cc1Nc1nc(C(F)(F)F)cs1)C1CCCCC1` [example 299, 4′-[cyclohexyl(2-methylpropyl)amino]-3′-{[4-(trifluoromethyl)-1,3-thiazol-2-yl]amino}-[1,1′-biphenyl]-2-carboxylic acid] registered an HELA_IDO1_TOX_PXC50 in series [1] below 5. Besides, the “PBMC TOX PXC50” value in series [2] is listed as below 5. For the same compound, the IC50 in series [3] is 15.8 nM; in series [4], 6.31 nM.

As for `CC(C)CN(CC(C)C)c1ccc(C2CC2C(=O)O)cc1Nc1nc(Cl)ns1` (stereo not drawn) [example 177, (1R*,2R**)-2-{4-[bis(2-methylpropyl)amino]-3-[(3-chloro-1,2,4-thiadiazol-5-yl)amino]phenyl}cyclo-propane-1-carboxylic acid], in series [1], the HELA_IDO1_TOX_PXC50 is on record as below 5. The “PBMC TOX PXC50” value in series [2] is recorded as below 5. Besides, the IC50 in series [3] is 158 nM; in series [4], 31.6 nM.

In turn, `CC(C)CN(c1ccc(C(C)(C)CC(=O)O)cc1Nc1nc(C(F)(F)F)ns1)C1CCOCC1` [Example 1, 3-(4-(isobutyl(tetrahydro-2H-pyran-4-yl)amino)-3-((3-(trifluoromethyl)-1,2,4-thiadiazol-5-yl)amino)phenyl)-3-methylbutanoic Acid] displayed an HELA_IDO1_TOX_PXC50 in series [1] below 5. Also, the “PBMC TOX PXC50” value in series [2] is on record as below 5. In addition, the values for the IC50 in series [3] and in series [4] were 3.98 nM and 0.794 nM, respectively.

In series [1], `CC(C)CN(c1ccc(C(C)CC(=O)O)cc1NC1=NC(=O)[C@H](c2ccccc2)N1)C1CCCCC1` (stereo partly drawn) [example 165, 3-{4-[cyclohexyl(2-methylpropyl)amino]-3-{[(5S)-4-oxo-5-phenyl-4,5-dihydro-1H-imidazol-2-yl]amino}phenyl}butanoic acid] displayed an HELA_IDO1_TOX_PXC50 below 5. The “PBMC TOX PXC50” value in series [2] is below 5. Also, the IC50 is 794 nM in series [3] and 1580 nM in series [4].

The compound `CO[C@H]1CC[C@@H](N(CC(C)C)c2ccc([C@H](C)CC(=O)O)cc2Nc2n[nH]c(Cl)n2)CC1` [Example 61, (R)-3-(3-((5-chloro-1H-1,2,4-triazol-3-yl)amino)-4-(isobutyl((cis)-4-methoxycyclohexyl)amino)phenyl)butanoic Acid] returned an HELA_IDO1_TOX_PXC50 in series [1] below 5. For the same compound, in series [2], the “PBMC TOX PXC50” value was below 5. The IC50 in series [3] is 6.31 nM; in series [4] it was 2 nM.

As to `CC(C)CN(c1ccc(C(C)OCC(=O)O)cc1Nc1nc2ccccc2[nH]1)C1CCCCC1` (stereo not shown) [example 173, 2-(1-{3-[(1H-1,3-benzodiazol-2-yl)amino]-4-[cyclohexyl(2-methylpropyl)amino]phenyl}ethoxy)acetic acid], the HELA_IDO1_TOX_PXC50 in series [1] was below 5. In series [2], the “PBMC TOX PXC50” value is given as below 5. The IC50 in series [3] was 20 nM; in series [4], 25.1 nM.

Turning to `CC(C)CN(c1ccc([C@H](C)CC(=O)O)cc1NC1CCC1)C1CCCCC1` [example 181, (3R)-3-[3-(cyclobutylamino)-4-[cyclohexyl(2-methylpropyl)amino]phenyl]butanoic acid], the HELA_IDO1_TOX_PXC50 in series [1] is recorded as below 5. Besides, the “PBMC TOX PXC50” value in series [2] is below 5. Also, the values for the IC50 in series [3] and in series [4] were 316 nM and 158 nM, respectively.

With `CC(C)CN(c1ccc(-c2ccccc2C(=O)O)cc1Nc1nc(C(F)(F)F)ns1)[C@H]1CC[C@@H](O)CC1` [example 279, 4′-[(2-methylpropyl)[(1s,4s)-4-hydroxycyclohexyl]amino]-3′-{[3-(trifluoromethyl)-1,2,4-thiadiazol-5-yl]amino}-[1,1′-biphenyl]-2-carboxylic acid], the HELA_IDO1_TOX_PXC50 in series [1] is below 5. The “PBMC TOX PXC50” value in series [2] is given as below 5. Also, the IC50 was 100 nM in series [3] and 20 nM in series [4].

In series [1], `Cc1nnc(Nc2cc([C@H](C)CC(=O)O)ccc2N(CC(C)C)C2CCOCC2)s1` [example 215, (3R)-3-{3-[(5-methyl-1,3,4-thiadiazol-2-yl)amino]-4-[(2-methylpropyl)(oxan-4-yl)amino]phenyl}butanoic acid] yielded an HELA_IDO1_TOX_PXC50 below 5. In series [2], the “PBMC TOX PXC50” value is given as below 5. Further, the IC50 in series [3] was 20 nM; in series [4], 31.6 nM.

Take `CC(C)CN(CC(C)C)c1ccc(C(C)CC(=O)O)cc1Nc1nnn[nH]1` (stereo not shown) [example 168, 3-{4-[bis(2-methylpropyl)amino]-3-[(1H-1,2,3,4-tetrazol-5-yl)amino]phenyl}butanoic acid]: in series [1], the HELA_IDO1_TOX_PXC50 was below 5. In series [2], the “PBMC TOX PXC50” value is below 5. Moreover, the IC50 in series [3] and in series [4] was above 10000 nM each time.

In turn, `CC(C)CN(c1ccc(C(C)OCC(=O)O)cc1Nc1nc2ccccc2o1)C1CCCCC1` (stereo not shown) [example 170, 2-(1-{3-[(1,3-benzoxazol-2-yl)amino]-4-[cyclohexyl(2-methylpropyl)amino]phenyl}ethoxy)acetic acid] showed an HELA_IDO1_TOX_PXC50 in series [1] below 5. Moreover, in series [2], the “PBMC TOX PXC50” value was below 5. Moreover, the IC50 in series [3] was 501 nM; in series [4] it was 316 nM.

On to `CC(C)CN(c1ccc([C@H](C)CC(=O)O)cc1Nc1nnc(C(C)C)[nH]1)C1CCOCC1` [example 212, (3R)-3-{4-[(2-methylpropyl)(oxan-4-yl)amino]-3-{[5-(propan-2-yl)-4H-1,2,4-triazol-3-yl]amino}phenyl}butanoic acid], for which the HELA_IDO1_TOX_PXC50 in series [1] is recorded as below 5. Further, in series [2], the “PBMC TOX PXC50” value is below 5. In addition, the figures for the IC50 in series [3] and in series [4] were 200 nM and 63.1 nM, respectively.

For `CC(C)CN(CC(C)C)c1ccc([C@H](C)CC(=O)O)cc1Nc1nnc(C(F)(F)F)s1` [Example 87, (R)-3-(4-(diisobutylamino)-3-((5-(trifluoromethyl)-1,3,4-thiadiazol-2-yl)amino)phenyl)butanoic Acid], the HELA_IDO1_TOX_PXC50 in series [1] was below 5. The “PBMC TOX PXC50” value in series [2] is listed as below 5. In addition, the IC50 was 7.94 nM in series [3] and 3.98 nM in series [4].

In series [1], `CC(C)CN(c1ccc([C@H](C)CC(=O)O)cc1Nc1nc(C(F)(F)F)cs1)C1CCOCC1` [Example 22, (R)-3-(4-(Isobutyl(tetrahydro-2H-pyran-4-yl)amino)-3-((4-(trifluoromethyl)thiazol-2-yl)amino)phenyl)butanoic Acid] showed an HELA_IDO1_TOX_PXC50 below 5. In addition, the “PBMC TOX PXC50” value in series [2] is below 5. Further, the IC50 in series [3] and in series [4] was 2.51 nM each time.

`CC(C)CN(c1ccc([C@H](C)CC(=O)O)cc1Nc1ccc(C#N)cn1)C1CCCCC1` [Example 73, (R)-3-(3-((5-cyanopyridin-2-yl)amino)-4-(cyclohexyl(isobutyl)amino)phenyl)butanoic Acid] registered an HELA_IDO1_TOX_PXC50 in series [1] below 5. Moreover, the “PBMC TOX PXC50” value in series [2] is on record as below 5. For the same compound, the IC50 was 3.98 nM in series [3] and 0.794 nM in series [4].

Regarding `CC(C)CN(c1ccc([C@H](C)CC(=O)O)cc1Nc1ccc(Cl)nn1)[C@H]1CC[C@H](O)CC1` [Example 57, (R)-3-(3-((6-chloropyridazin-3-yl)amino)-4-(((1r,4R)-4-hydroxycyclohexyl) (isobutyl)amino)phenyl)butanoic Acid], in series [1], the HELA_IDO1_TOX_PXC50 is recorded as below 5. In addition, the “PBMC TOX PXC50” value in series [2] was below 5. The results for the IC50 in series [3] and in series [4] were 7.94 nM and 5.01 nM, respectively.

As for `CC(C)CN(c1ccc(C(C)CC(=O)O)cc1NC1CCC(C)CC1)C1CCCCC1` (stereo not shown) [example 158, 3-{4-[cyclohexyl(2-methylpropyl)amino]-3-[(4-methylcyclohexyl)ami-no]phenyl}butanoic acid], in series [1], the HELA_IDO1_TOX_PXC50 was below 5. Besides, the “PBMC TOX PXC50” value in series [2] was below 5. Also, the IC50 is 1000 nM in series [3] and 631 nM in series [4].
